Reference: ChEMBL document CHEMBL4321812, “Structure-based rational design of staurosporine-based fluorescent probe with broad-ranging kinase affinity for kinase panel application” (Bioorg Med Chem Lett, 2019)

Experiments:
[1] = target: Maternal embryonic leucine zipper kinase (Homo sapiens, UniProt Q14680); test: Binding affinity to recombinant full-length N-terminal His-FLAG-GST-tagged MELK (unknown origin) (1 to 493 residues) expressed in baculovirus infected Sf9 insect cells incubated for 1 hr by TR-FRET assay
[2] = target: Calcium/calmodulin-dependent protein kinase kinase 2 (Homo sapiens, UniProt Q96RR4); test: Binding affinity to recombinant full-length N-terminal His-FLAG-GST-tagged CAMKK2 (unknown origin) expressed in baculovirus infected Sf9 insect cells incubated for 1 hr in presence of calmodulin by TR-FRET assay
[3] = target: High affinity nerve growth factor receptor (Homo sapiens, UniProt P04629); test: Binding affinity to recombinant full-length N-terminal His-FLAG-GST-tagged NTRK1 (unknown origin) (436 to 790 residues) expressed in baculovirus infected Sf9 insect cells incubated for 1 hr by TR-FRET assay
[4] = target: Protein kinase C eta type (Homo sapiens, UniProt P24723); test: Binding affinity to recombinant full-length N-terminal His-FLAG-GST-tagged PRKCH (unknown origin) expressed in baculovirus infected Sf9 insect cells incubated for 1 hr by TR-FRET assay
[5] = target: Misshapen-like kinase 1 (Homo sapiens, UniProt Q8N4C8); test: Binding affinity to recombinant full-length N-terminal His-FLAG-GST-tagged MINK1 (unknown origin) (1 to 314 residues) expressed in baculovirus infected Sf9 insect cells incubated for 1 hr by TR-FRET assay
[6] = target: Mitogen-activated protein kinase 8 (Homo sapiens, UniProt P45983); test: Binding affinity to recombinant N-terminal His-FLAG-GST-tagged MAPK8 (unknown origin) (2 to 364 residues) expressed in baculovirus infected Sf9 insect cells incubated for 1 hr by TR-FRET assay
[7] = target: Fibroblast growth factor receptor 4 (Homo sapiens, UniProt P22455); test: Binding affinity to recombinant N-terminal His-FLAG-GST-tagged FGFR4 (unknown origin) (460 to 802 residues) expressed in baculovirus infected Sf9 insect cells incubated for 1 hr by TR-FRET assay
[8] = target: Serine/threonine-protein kinase DCLK3 (Homo sapiens, UniProt Q9C098); test: Binding affinity to recombinant full-length N-terminal His-FLAG-tagged DCLK3 (unknown origin) expressed in baculovirus infected Sf9 insect cells incubated for 1 hr by TR-FRET assay
[9] = target: Serine/threonine-protein kinase PLK4 (Homo sapiens, UniProt O00444); test: Binding affinity to recombinant full-length N-terminal His-FLAG-GST-tagged PLK4 (unknown origin) (1 to 836 residues) expressed in baculovirus infected Sf9 insect cells incubated for 1 hr by TR-FRET assay
[10] = target: Testis-specific serine/threonine-protein kinase 3 (Homo sapiens, UniProt Q96PN8); test: Binding affinity to recombinant full-length N-terminal His-FLAG-GST-tagged TSSK3 (unknown origin) expressed in baculovirus infected Sf9 insect cells incubated for 1 hr by TR-FRET assay
[11] = target: ALK tyrosine kinase receptor (Homo sapiens, UniProt Q9UM73); test: Binding affinity to recombinant human […] N-terminal GST-tagged ALK (1058 to 1620 residues) expressed in baculovirus expression system using Srctide as substrate incubated for 1 hr by TR-FRET assay
[12] = target: Serine/threonine-protein kinase PAK 5 (Homo sapiens, UniProt Q9P286); test: Binding affinity to recombinant N-terminal His-FLAG-GST-tagged PAK7 (unknown origin) (425 to 719 residues) expressed in baculovirus infected Sf9 insect cells incubated for 1 hr by TR-FRET assay
[13] = target: Serine/threonine-protein kinase PAK 6 (Homo sapiens, UniProt Q9NQU5); test: Binding affinity to recombinant human full-length N-terminal GST-tagged PAK6 expressed in baculovirus expression system using SGKtide as substrate incubated for 1 hr by TR-FRET assay
[14] = target: Focal adhesion kinase 1 (Homo sapiens, UniProt Q05397); test: Binding affinity to recombinant human full length N-terminal GST-tagged PTK2 expressed in baculovirus expression system incubated for 1 hr by TR-FRET assay
[15] = target: Fibroblast growth factor receptor 3 (Homo sapiens, UniProt P22607); test: Binding affinity to recombinant N-terminal His-FLAG-GST-tagged FGFR3 (unknown origin) (436 to 806 residues) expressed in baculovirus infected Sf9 insect cells incubated for 1 hr by TR-FRET assay
[16] = target: Serine/threonine-protein kinase Sgk3 (Homo sapiens, UniProt Q96BR1); test: Binding affinity to recombinant full-length N-terminal His-FLAG-GST-tagged SGK3 (unknown origin) (119 to 496 residues) expressed in baculovirus infected Sf9 insect cells incubated for 1 hr by TR-FRET assay
[17] = target: Myotonin-protein kinase (Homo sapiens, UniProt Q09013); test: Binding affinity to recombinant full-length N-terminal His-FLAG-GST-tagged DMPK (unknown origin) expressed in baculovirus infected Sf9 insect cells incubated for 1 hr by TR-FRET assay
[18] = target: NUAK family SNF1-like kinase 1 (Homo sapiens, UniProt O60285); test: Binding affinity to recombinant full-length N-terminal His-FLAG-GST-tagged NUAK1 (unknown origin) expressed in baculovirus infected Sf9 insect cells incubated for 1 hr by TR-FRET assay
[19] = target: LIM domain kinase 1 (Homo sapiens, UniProt P53667); test: Binding affinity to truncated human N-terminal GST-tagged LIMK1 (285 to 638 residues) expressed in baculovirus expression system using cofilin2 as substrate incubated for 1 hr by TR-FRET assay
[20] = target: Protein kinase C delta type (Homo sapiens, UniProt Q05655); test: Binding affinity to recombinant human full length N-terminal GST-tagged PRKCD expressed in baculovirus expression system using PKC peptide as substrate incubated for 1 hr by TR-FRET assay
[21] = target: Vascular endothelial growth factor receptor 2 (Homo sapiens, UniProt P35968); test: Binding affinity to recombinant human full length N-terminal GST-tagged KDR (790 to 1356 residues) expressed in baculovirus expression system using CSKtide as substrate incubated for 1 hr by TR-FRET assay
[22] = target: Serine/threonine-protein kinase BRSK1 (Homo sapiens, UniProt Q8TDC3); test: Binding affinity to recombinant full-length N-terminal His-FLAG-GST-tagged BRSK1 (unknown origin) expressed in baculovirus infected Sf9 insect cells incubated for 1 hr by TR-FRET assay
[23] = target: Calcium/calmodulin-dependent protein kinase type II subunit beta (Homo sapiens, UniProt Q13554); test: Binding affinity to recombinant human full length N-terminal GST-tagged CAMK2B expressed in baculovirus expression system using GS peptide as substrate incubated for 1 hr in presence of calmodulin by TR-FRET assay
[24] = target: Dual specificity protein kinase CLK1 (Homo sapiens, UniProt P49759); test: Binding affinity to recombinant N-terminal His-FLAG-GST-tagged CLK1 (unknown origin) (129 to 484 residues) expressed in baculovirus infected Sf9 insect cells incubated for 1 hr by TR-FRET assay
Dual specificity protein kinase CLK1, sequence (P49759 whole entry, the tested form may be a part): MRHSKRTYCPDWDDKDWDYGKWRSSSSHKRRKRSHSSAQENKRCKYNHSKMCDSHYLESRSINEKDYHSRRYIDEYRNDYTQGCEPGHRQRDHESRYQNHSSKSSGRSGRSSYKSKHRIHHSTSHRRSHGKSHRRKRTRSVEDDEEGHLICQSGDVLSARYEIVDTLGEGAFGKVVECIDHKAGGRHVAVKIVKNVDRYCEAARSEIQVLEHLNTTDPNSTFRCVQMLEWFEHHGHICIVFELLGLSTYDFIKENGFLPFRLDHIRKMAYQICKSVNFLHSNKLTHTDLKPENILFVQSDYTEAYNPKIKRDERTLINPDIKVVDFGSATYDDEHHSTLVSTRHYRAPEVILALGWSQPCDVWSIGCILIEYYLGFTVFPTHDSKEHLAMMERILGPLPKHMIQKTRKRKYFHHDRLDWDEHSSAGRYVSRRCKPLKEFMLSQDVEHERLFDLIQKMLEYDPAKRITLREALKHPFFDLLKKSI

Calcium/calmodulin-dependent protein kinase kinase 2, sequence (Q96RR4 whole entry, the tested form may be a part): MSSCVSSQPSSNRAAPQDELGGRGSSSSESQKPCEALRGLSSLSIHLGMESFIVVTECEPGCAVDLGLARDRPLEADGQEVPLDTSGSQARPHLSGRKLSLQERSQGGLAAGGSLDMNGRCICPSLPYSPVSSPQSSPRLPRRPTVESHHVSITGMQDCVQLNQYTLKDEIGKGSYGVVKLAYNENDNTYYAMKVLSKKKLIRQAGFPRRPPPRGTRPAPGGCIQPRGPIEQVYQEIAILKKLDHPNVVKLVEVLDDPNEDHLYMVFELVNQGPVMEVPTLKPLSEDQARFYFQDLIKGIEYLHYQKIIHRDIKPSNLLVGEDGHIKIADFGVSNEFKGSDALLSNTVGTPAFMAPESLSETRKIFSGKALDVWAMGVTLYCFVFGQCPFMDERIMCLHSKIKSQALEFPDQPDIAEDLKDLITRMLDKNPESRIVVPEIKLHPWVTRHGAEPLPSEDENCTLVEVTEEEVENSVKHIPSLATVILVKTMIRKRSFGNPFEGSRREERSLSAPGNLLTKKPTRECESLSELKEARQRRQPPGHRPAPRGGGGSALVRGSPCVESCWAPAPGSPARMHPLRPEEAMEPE
Serine/threonine-protein kinase DCLK3, sequence (Q9C098 whole entry, the tested form may be a part): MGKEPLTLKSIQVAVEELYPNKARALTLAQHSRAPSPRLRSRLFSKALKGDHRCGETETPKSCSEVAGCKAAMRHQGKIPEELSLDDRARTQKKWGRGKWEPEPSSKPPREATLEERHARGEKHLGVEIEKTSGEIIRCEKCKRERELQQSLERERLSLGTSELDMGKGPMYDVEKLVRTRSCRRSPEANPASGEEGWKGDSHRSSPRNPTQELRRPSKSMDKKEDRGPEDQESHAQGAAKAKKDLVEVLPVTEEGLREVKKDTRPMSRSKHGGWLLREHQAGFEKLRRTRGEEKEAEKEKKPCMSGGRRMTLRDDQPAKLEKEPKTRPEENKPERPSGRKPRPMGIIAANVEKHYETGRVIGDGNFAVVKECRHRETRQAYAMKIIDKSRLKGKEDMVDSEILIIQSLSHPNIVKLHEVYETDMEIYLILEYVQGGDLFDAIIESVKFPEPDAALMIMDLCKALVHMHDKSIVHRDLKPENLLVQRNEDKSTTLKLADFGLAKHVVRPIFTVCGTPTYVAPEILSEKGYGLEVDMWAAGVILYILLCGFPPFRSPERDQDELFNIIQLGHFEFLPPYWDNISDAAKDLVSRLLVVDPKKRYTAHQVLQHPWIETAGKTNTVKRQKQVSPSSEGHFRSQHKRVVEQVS
Vascular endothelial growth factor receptor 2, sequence (P35968 whole entry, the tested form may be a part): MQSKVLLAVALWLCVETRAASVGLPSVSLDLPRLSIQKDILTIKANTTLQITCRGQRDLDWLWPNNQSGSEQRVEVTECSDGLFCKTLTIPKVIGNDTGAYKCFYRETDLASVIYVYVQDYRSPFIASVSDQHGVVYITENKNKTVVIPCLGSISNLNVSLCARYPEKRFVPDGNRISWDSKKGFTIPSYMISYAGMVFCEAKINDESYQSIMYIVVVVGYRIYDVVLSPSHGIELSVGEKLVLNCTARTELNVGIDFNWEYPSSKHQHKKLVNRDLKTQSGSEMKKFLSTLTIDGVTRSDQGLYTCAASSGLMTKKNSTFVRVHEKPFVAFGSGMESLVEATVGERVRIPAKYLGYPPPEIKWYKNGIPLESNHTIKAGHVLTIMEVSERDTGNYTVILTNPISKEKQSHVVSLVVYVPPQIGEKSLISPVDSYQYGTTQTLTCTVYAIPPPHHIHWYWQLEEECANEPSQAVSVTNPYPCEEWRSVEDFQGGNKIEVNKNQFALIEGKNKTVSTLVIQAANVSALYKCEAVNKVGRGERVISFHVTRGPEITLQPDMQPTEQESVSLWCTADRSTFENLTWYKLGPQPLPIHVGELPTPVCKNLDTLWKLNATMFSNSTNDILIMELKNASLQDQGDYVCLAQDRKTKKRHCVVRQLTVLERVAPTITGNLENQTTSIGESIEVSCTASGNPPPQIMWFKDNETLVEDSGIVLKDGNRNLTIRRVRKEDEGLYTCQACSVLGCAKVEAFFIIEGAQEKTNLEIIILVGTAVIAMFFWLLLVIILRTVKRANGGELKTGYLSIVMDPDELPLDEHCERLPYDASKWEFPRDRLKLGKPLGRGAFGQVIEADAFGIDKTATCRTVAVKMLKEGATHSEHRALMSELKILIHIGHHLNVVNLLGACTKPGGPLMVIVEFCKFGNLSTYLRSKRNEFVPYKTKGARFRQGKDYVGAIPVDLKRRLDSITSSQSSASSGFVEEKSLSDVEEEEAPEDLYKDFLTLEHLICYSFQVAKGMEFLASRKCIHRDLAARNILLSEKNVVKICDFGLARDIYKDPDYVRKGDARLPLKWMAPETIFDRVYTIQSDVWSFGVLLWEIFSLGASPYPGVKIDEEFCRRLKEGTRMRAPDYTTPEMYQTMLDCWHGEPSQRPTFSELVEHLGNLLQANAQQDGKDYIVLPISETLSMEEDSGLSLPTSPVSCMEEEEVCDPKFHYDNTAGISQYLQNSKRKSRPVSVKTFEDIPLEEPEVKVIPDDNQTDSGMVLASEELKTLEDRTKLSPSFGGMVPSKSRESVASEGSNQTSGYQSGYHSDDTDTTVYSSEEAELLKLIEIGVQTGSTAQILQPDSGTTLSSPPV
Maternal embryonic leucine zipper kinase, sequence (Q14680 whole entry, the tested form may be a part): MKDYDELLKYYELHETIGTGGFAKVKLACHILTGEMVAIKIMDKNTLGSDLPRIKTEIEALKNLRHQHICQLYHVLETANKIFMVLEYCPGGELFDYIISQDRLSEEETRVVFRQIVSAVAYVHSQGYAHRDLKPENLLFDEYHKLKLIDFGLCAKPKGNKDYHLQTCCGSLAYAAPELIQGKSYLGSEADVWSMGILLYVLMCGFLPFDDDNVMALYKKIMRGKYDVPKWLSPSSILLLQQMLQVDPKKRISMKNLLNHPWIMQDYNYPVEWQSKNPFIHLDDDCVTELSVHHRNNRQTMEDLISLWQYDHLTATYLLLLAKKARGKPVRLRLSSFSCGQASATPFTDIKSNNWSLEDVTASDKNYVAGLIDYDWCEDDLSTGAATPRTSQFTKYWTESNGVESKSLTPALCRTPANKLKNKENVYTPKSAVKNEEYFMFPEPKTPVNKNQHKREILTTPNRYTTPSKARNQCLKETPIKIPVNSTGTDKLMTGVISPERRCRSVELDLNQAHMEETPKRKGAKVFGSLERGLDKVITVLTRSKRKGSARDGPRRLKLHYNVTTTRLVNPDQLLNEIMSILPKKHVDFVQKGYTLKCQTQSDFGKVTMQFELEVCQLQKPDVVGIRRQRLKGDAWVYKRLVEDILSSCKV
High affinity nerve growth factor receptor, sequence (P04629 whole entry, the tested form may be a part): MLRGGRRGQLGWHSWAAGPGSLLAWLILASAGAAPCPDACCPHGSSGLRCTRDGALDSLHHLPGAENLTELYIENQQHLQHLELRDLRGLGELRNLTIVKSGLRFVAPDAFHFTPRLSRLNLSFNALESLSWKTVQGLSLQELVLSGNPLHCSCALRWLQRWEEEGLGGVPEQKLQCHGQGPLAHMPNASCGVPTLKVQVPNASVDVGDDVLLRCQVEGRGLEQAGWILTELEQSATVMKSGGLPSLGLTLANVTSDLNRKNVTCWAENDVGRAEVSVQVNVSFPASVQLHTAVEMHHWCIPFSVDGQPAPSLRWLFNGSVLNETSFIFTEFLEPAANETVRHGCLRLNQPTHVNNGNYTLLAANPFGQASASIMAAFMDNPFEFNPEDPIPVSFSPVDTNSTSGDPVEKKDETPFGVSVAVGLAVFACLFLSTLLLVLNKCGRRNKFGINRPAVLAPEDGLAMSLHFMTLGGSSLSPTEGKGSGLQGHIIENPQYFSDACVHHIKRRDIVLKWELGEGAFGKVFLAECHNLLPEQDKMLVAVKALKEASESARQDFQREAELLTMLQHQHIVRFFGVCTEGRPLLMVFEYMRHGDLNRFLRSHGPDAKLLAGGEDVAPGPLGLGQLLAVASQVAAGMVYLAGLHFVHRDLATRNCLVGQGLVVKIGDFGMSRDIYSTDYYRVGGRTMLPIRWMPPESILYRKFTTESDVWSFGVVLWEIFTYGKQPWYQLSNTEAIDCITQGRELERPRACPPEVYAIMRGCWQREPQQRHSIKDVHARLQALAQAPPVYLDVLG
Mitogen-activated protein kinase 8, sequence (P45983 whole entry, the tested form may be a part): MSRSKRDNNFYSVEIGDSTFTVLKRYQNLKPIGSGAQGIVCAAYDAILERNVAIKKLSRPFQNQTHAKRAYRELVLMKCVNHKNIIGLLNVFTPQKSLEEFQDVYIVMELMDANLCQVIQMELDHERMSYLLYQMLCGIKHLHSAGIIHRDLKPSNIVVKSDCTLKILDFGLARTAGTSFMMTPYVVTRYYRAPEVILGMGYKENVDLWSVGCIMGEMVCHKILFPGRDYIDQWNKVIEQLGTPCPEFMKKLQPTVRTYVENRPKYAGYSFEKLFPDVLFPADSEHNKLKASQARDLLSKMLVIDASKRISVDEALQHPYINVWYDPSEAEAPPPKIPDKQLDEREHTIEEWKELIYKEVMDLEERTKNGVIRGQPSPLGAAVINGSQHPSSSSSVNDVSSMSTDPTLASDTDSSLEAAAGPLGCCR

| SMILES | Kd [1] | Kd [2] | Kd [3] | Kd [4] | Kd [5] | Kd [6] | Kd [7] | Kd [8] | Kd [9] | Kd [10] | Kd [11] | Kd [12] | Kd [13] | Kd [14] | Kd [15] | Kd [16] | Kd [17] | Kd [18] | Kd [19] | Kd [20] | also measured |
| --- | --- | --- | --- | --- | --- | --- | --- | --- | --- | --- | --- | --- | --- | --- | --- | --- | --- | --- | --- | --- | --- |
| CO[C@@H]1[C@H](N(C)CCOCCOCCOCCNC(=O)CCC2=[N+]3C(=Cc4c(C)cc(C)n4[B-]3(F)F)C=C2)C[C@H]2O[C@]1(C)n1c3ccccc3c3c4c(c5c6ccccc6n2c5c31)C(=O)NC4 | 41 nM | 6 nM | 25 nM | 37 nM | 158 nM | 536 nM | 1490 nM | 104 nM | 20 nM | 330 nM | 172 nM | 53 nM | 25 nM | 308 nM | 848 nM | 338 nM | 94 nM | 13 nM | 32 nM | 3 nM | Kd [21]: 135 nM; Kd [22]: 194 nM; Kd [23]: 12 nM; Kd [24]: 125 nM |
| CO[C@@H]1[C@H](NCCOCCOCCOCCNC(=O)CCC2=[N+]3C(=Cc4c(C)cc(C)n4[B-]3(F)F)C=C2)C[C@H]2O[C@]1(C)n1c3ccccc3c3c4c(c5c6ccccc6n2c5c31)C(=O)NC4 | 50 nM | 2 nM | 35 nM | 61 nM | 228 nM | 286 nM | 718 nM | 60 nM | 33 nM | 380 nM | 230 nM | 40 nM | 22 nM | 401 nM | 409 nM | 322 nM | 90 nM | 15 nM | 6 nM | 13 nM | Kd [21]: 193 nM; Kd [22]: 109 nM; Kd [23]: 19 nM; Kd [24]: 93 nM |
